Assays:
[1] = tested on: methanol-intoxicated rats; test: Retinal histopathology by light and electron microscopy; settings: rat, in vivo
Excerpt: (§1) Methanol-intoxication Protocol.
(§2) Light-Emitting Diode Treatment.
Histopathologic Analysis.

[2] = tested on: methanol-intoxicated rats; test: Rod and M-cone (15 Hz/510 nm) ERG after 72 hours of methanol intoxication; format: in vivo, rat
Experimental: as §1, §2
ERG Procedures and Analyses.
All sensitivity measures were made in triplicate.
15 Hz/510 nm ERG Response. ERGs were recorded in response to a 15-Hz flickering light at a wavelength of 510 nm over a 3-log unit range of light intensity.

[3] = tested on: methanol-intoxicated rats
Experimental: Animals were randomly assigned to one of four treatment groups: (1) Untreated control, (2) LED-treated control, (3) methanol-intoxicated and (4) LED-treated methanol-intoxicated rats. Rats were placed in a thermostatically controlled plexiglass chamber (22×55×22 cm; maintained at 22-23° C.) and exposed to a mixture of N2O/O2 (1:1; flow rate 2 liters/min) for the duration of the experiment. […] In the present studies, methanol (25% w/v methanol in saline) was administered (i.p.) to N2O/O2 treated rats at an initial dose of dose 4 g/kg, followed by supplemental doses of 1.5 g/kg at 24 and 48 hours.
Light-Emitting Diode Treatment. […] Rats were placed in a plexiglass restraint device (12.7×9×7.6 cm). The LED array was positioned directly over the animal at a distance of 1 inch, exposing the entire body. Treatment consisted of irradiation at 670 nm for 2 minutes and 24 seconds resulting in a power intensity of 28 mW/cm^2 and an energy density of 4 joules/cm^2 at 5, 25 and 50 hours after the initial dose of methanol.
ERG Procedures and Analyses. ERG experiments were performed as previously described (M. T. Seme, et al., supra, 1999; M. T. Seme, et al., supra, 2001). The light stimulation apparatus consisted of a three-beam optical system. All three beams were derived from tungsten-halide lamps (50 W, 12 V). Beam intensity was controlled by using neutral density step filters. ERG recordings were differentially amplified and computer-averaged. The amplified signal was processed through a two-stage active narrow bandpass filter (the half voltage of this filter was 0.2 times the center frequency). […] The averaged responses were measured (peak-to-trough amplitude) from a calibrated digital oscilloscope display.
Before ERG analysis, ophthalmoscopic examination confirmed that all eyes were free of lenticular opacities or other gross anomalies. […] The stimulus intensity yielding a 5-μV criterion response was determined by extrapolating between the two intensity points that bracketed the 5-μV response for each animal.

## CO [methanol, Methanol]
[1]
  outer retinal histopathology: Pronounced histopathologic changes
[2]
  increase of 5 μV threshold light intensity relative to control, 15-Hz/510-nm ERG: 0.6 log units
[2]; 72 hours, no LED
  maximal 15-Hz/510-nm ERG amplitude: 18±5 μV
  maximal rod and M-cone ERG amplitude as % of the maximum control response: approximately 28%
[2]; controls −3.0±0.1 LRRI
  light intensity required to elicit a threshold (5 μV) 15-Hz/510-nm ERG response: −2.4±0.1 LRRI
[3]
  increase of light intensity required for a 5-μV UV-cone response: 0.5 log units
[3]; 72 hours, no LED
  maximal UV-cone ERG response amplitude: 18±6 μV
[3]; no LED
  maximal UV-cone ERG amplitude as % of the maximum control response: 30%

Reference: patent US7744590B2, “Red to near-infrared photobiomodulation treatment of the visual system in visual system disease or injury” (Medical College of Wisconsin Research Foundation, Inc., priority 2003, dated 2010)
